Experimental findings from ChEMBL document CHEMBL1148572, “1-((S)-2-aminopropyl)-1H-indazol-6-ol: a potent peripherally acting 5-HT2 receptor agonist with ocular hypotensive activity” (J Med Chem, 2006) are described below.

Broadly, the inhibition is the change of the read-out against control, counted positive when it falls. One may read the Ki as the equilibrium dissociation constant of an inhibitor or competing ligand from its target.

Series [1] has as its target Epidermal growth factor receptor (Homo sapiens) (UniProt P00533). Nature of the series: Inhibition of EGFR at 100 nM.
The target in series [2] is 5-hydroxytryptamine receptor 2B (Homo sapiens, UniProt P41595). The series can be described thus: biochemical.
Sequence of 5-hydroxytryptamine receptor 2B (P41595 whole entry): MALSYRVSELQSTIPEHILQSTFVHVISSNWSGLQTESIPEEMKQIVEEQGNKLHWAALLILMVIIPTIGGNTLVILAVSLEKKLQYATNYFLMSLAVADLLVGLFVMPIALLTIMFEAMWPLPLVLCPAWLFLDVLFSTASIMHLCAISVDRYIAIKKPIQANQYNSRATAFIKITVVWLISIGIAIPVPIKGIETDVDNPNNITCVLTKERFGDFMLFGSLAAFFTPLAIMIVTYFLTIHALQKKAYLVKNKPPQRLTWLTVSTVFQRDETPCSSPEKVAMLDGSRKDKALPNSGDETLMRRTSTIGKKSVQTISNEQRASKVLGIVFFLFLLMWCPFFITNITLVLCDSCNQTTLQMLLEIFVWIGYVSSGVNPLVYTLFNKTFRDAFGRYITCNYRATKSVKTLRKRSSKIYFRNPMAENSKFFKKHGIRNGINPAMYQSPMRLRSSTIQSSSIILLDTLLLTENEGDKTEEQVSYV
Description: Displacement of [125I]DOI from cloned human 5HT2B receptor expressed in CHO cells
Series [3] addresses Opioid receptors; mu/kappa/delta (Homo sapiens) (UniProt P41145+P41143+P35372). Nature of the series: Inhibition of non selective binding to opiate receptor at 1 nM. In kind it is protein assay.
Series [4] deals with Dopamine receptor (Homo sapiens) (UniProt P14416+P35462+P21918+P21917+P21728). The series can be described thus: Inhibition of non selective binding to dopamine receptor at 10 uM. In kind it is protein assay.
Series [5] addresses T1, Alpha-2C adrenergic receptor (Homo sapiens, UniProt P18825).
T1 sequence (P18825 whole entry): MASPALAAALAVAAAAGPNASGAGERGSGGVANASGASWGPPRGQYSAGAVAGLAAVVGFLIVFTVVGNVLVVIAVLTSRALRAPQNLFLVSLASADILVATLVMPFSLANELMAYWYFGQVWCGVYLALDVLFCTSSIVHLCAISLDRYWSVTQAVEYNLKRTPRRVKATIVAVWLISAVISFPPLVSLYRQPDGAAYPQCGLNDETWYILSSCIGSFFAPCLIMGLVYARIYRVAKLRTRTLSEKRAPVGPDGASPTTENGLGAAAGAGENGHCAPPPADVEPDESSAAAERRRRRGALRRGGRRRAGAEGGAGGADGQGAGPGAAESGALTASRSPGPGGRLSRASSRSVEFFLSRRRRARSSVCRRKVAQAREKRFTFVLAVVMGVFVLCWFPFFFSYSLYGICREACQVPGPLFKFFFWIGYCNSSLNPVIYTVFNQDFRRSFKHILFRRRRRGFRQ
Nature of the series: Displacement of [3H]clonidine from cloned human adrenergic Alpha-2C receptor expressed in Sf9 cells. In general terms: Displacement assays read how much labelled ligand stays bound in the presence of the test substance.

For series [6], the target named is T2, Endothelin-1 receptor (Homo sapiens) (UniProt P25101).
T2 sequence (whole entry): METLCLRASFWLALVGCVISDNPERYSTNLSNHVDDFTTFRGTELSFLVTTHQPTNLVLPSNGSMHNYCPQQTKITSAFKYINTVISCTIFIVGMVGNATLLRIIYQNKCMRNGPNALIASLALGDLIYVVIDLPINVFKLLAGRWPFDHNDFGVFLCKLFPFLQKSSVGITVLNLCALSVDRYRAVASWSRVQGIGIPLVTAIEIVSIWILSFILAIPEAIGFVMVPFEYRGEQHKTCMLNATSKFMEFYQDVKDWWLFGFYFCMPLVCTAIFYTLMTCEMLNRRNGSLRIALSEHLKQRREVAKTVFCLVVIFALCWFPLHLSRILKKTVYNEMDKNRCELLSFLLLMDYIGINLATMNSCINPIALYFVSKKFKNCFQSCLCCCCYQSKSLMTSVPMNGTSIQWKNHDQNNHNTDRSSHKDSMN
The series can be described thus: Inhibition of human recombinant endothelin 1 receptor at 10 uM.

The target of series [7] is T3, B2 bradykinin receptor (Homo sapiens) (UniProt P30411).
T3 sequence (whole entry): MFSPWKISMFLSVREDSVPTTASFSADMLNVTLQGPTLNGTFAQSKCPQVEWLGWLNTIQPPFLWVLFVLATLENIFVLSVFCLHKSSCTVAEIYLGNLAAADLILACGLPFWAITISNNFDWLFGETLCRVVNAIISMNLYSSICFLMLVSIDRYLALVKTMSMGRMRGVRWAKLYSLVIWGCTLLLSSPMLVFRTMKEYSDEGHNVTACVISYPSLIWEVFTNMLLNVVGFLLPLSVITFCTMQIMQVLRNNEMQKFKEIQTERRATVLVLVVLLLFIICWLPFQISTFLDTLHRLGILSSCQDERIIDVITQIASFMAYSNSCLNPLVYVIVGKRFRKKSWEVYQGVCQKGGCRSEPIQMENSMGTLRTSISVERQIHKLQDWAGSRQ
The series can be described thus: Inhibition of bradykinin 2 receptor at 10 uM.

The target of series [8] is T4, Adenosine receptor (Homo sapiens) (UniProt P30542+P29275+P0DMS8+P29274). Nature of the series: Inhibition of non selective binding to adenosine receptor at 1 nM. The class given is protein assay.
T4 sequence (P0DMS8 whole entry, looked up): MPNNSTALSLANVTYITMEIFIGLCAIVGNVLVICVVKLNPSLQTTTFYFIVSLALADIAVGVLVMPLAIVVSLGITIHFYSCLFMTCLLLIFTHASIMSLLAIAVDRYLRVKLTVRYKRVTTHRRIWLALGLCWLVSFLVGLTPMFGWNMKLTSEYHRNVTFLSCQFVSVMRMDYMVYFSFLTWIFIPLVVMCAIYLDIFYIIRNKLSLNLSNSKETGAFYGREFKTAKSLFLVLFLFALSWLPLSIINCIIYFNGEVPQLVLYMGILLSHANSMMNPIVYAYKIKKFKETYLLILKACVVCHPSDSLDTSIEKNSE
T4 sequence (P29274 whole entry, looked up): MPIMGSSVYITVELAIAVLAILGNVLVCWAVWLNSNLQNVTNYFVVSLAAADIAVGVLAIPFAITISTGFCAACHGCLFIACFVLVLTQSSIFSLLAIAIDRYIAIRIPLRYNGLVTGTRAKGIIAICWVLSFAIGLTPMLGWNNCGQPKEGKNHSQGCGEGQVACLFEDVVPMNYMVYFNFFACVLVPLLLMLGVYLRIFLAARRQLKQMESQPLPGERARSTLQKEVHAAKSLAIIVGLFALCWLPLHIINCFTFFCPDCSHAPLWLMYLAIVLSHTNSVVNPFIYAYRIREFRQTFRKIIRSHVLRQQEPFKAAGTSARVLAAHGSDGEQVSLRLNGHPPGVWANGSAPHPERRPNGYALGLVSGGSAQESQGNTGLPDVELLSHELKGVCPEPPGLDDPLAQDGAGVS
T4 sequence (P29275 whole entry, looked up): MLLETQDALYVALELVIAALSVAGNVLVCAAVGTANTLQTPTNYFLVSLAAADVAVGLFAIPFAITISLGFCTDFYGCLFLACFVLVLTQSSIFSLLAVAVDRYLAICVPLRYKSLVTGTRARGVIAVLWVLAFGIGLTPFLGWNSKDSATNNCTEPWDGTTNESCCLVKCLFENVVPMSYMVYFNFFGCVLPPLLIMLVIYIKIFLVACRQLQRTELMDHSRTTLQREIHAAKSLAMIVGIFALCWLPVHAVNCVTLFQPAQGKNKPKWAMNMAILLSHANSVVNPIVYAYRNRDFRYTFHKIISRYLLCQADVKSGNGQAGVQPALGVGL
T4 sequence (P30542 whole entry, looked up): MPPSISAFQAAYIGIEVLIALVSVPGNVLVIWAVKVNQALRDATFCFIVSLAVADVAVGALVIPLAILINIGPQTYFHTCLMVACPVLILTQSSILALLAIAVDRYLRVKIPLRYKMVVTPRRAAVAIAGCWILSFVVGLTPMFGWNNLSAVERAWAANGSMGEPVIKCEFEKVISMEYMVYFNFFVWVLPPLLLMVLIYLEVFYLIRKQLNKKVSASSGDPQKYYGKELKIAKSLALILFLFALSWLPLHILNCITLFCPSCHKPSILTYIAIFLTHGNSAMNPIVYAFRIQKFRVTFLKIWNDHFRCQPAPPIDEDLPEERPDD
In series [9] the target is T4, Adenosine receptor (Homo sapiens). The series can be described thus: Inhibition of non selective binding to adenosine receptor at 10 uM. The class given is protein assay.
The nature of series [10]: Inhibition of P2Y purinergic receptor at 10 uM.
A further series is filed under the species Homo sapiens. The series can be described thus: Inhibition of inositol triphosphate IP3 at 100 nM. The class given is functional.
Series [11] concerns the target T5, monoamine oxidase A (MAO-A) (Rattus norvegicus, UniProt P21396).
T5 sequence (P21396 whole entry): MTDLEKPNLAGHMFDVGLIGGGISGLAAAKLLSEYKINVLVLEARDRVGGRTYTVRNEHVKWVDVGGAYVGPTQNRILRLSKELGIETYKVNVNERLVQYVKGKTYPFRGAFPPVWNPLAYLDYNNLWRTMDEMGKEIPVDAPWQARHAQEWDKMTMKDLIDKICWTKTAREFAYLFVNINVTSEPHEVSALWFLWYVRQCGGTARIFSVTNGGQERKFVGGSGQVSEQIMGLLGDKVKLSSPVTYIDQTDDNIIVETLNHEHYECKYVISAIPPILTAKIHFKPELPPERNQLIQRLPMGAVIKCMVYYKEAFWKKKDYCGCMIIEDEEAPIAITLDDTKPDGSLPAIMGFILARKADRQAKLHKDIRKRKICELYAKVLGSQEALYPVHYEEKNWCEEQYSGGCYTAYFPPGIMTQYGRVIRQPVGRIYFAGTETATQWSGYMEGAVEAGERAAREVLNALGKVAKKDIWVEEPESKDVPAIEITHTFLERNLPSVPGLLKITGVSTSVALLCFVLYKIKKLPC
The series can be described thus: Inhibition of monoamine oxidase A in rat brain at 100 nM. In kind it is tissue-based.

Sequence of Opioid receptors; mu/kappa/delta (Homo sapiens) (P35372 whole entry, looked up): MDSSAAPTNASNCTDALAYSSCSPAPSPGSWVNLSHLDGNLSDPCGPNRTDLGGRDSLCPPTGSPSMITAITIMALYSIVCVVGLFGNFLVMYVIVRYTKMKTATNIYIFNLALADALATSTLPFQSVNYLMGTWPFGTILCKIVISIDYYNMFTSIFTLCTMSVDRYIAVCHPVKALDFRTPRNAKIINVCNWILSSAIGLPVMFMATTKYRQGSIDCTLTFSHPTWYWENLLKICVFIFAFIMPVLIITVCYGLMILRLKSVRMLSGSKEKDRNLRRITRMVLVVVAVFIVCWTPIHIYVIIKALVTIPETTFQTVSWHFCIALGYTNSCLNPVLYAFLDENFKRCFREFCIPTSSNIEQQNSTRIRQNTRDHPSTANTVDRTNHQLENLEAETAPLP
Sequence of Opioid receptors; mu/kappa/delta (Homo sapiens) (P41143 whole entry, looked up): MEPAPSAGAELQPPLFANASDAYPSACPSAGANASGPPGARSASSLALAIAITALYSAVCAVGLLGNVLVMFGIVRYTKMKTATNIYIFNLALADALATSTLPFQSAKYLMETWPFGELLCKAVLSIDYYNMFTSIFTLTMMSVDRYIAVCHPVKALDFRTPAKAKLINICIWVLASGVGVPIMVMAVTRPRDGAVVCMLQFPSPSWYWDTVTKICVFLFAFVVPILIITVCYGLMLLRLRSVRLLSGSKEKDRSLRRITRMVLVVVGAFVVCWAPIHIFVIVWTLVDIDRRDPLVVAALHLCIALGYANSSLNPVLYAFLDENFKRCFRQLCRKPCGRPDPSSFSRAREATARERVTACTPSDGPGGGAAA
Sequence of Opioid receptors; mu/kappa/delta (Homo sapiens) (P41145 whole entry, looked up): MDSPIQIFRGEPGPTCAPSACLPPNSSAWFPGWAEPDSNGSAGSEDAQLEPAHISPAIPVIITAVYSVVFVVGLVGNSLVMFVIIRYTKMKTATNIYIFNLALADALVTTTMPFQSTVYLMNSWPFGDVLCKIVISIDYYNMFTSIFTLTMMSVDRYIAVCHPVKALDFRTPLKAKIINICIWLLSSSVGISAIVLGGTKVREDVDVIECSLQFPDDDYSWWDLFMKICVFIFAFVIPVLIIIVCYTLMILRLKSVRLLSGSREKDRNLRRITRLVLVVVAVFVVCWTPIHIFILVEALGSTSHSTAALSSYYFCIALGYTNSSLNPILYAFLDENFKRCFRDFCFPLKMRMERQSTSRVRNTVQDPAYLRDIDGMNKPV
Sequence of Epidermal growth factor receptor (Homo sapiens) (P00533 whole entry): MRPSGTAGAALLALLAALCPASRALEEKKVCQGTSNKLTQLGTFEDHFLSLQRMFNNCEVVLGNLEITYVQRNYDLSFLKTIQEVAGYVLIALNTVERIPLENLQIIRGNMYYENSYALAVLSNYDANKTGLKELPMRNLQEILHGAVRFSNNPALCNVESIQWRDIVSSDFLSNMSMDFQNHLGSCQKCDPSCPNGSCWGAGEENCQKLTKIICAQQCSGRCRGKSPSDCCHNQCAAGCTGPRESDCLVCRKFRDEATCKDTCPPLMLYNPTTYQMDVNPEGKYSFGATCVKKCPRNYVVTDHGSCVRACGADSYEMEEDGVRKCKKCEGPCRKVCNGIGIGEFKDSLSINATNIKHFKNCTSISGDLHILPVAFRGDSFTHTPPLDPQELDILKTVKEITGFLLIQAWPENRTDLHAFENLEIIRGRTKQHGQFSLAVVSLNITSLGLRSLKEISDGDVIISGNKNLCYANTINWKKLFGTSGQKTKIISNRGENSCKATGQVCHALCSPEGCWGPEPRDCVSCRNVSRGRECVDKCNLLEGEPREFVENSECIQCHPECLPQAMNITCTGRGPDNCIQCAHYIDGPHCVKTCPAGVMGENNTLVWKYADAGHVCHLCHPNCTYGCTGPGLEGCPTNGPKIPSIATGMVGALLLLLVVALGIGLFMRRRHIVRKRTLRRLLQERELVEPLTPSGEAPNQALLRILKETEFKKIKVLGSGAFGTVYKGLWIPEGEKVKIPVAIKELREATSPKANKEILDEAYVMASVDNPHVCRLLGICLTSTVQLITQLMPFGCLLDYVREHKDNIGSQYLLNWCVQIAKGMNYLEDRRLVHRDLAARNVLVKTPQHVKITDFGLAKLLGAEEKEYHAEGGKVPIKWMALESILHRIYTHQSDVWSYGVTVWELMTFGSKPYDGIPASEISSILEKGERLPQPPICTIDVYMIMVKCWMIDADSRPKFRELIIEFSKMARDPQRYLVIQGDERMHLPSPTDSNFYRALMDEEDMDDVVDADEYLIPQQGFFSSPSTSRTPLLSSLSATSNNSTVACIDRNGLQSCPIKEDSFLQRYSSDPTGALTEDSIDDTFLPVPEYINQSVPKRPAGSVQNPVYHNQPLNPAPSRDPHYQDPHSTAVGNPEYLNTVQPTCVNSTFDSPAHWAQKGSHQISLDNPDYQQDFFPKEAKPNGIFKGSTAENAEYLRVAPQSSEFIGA

In the case of `C[C@H](N)Cn1ncc2ccc(O)cc21`, the inhibition in series [1] was 1.86%; in series [3], -6.1%; in series [4], 51.2%; in series [6], -6.96%; in series [7], 0.11%; in series [8], 11.2%. For the same molecule, the inhibition was found to be 13.2% in series [9], 12.2% in [10] and 8.56% in the series listed under Homo sapiens. The Ki in series [2] is 0.0081 µM; in series [5], 4.7 µM. Further, in series [11], the inhibition at 0.1 µM was -22.3%.
